# Assay results reported in patent publication US20050181459A1, “Method for mapping and eliminating T cell epitopes” (priority 2002, published 2005).
# Where no end group is shown, it is not given here.
# System: PBMC
# Test: T cell activation assay (time course) of IFNα peptides, PBMC from 20 healthy donors and 20 IFN α2b-treated HCV patients
# Assay type: cell-based, human
# Settings: 20 healthy donors and 20 HCV patients previously treated with IFN α2b; 6-9 days culture; 3H-thymidine
row,Sequence,percentage of donors whose PBMC responded to a peptide (SI greater than about 1.95)
1,KEDSILAVRKYFQRI (Potential T-cell Epitopes) [compound 38],15%
2,SILAVRKYFQRITLY (Potential T-cell Epitopes) [peptide 39],25%
3,RRISLFSCLKDRHDF (Potential T-cell Epitopes) [compound 8],15%
4,SLFSCLKDRHDFGFP (Potential T-cell Epitopes) [compound 9],15%
5,FNLFSTKDSSAAWDE (Potential T-cell Epitopes) [peptide 22],15%

# System: not listed separately
# Test: Solubility of IFNα peptides
# Assay type: physicochemical
# Settings: in the T cell assay of Example 6
row,solubility of peptide,Sequence
1,insoluble,"VLHEMIQQIFNLFST [compound 19, VLHEMIQQIFNLFST]"
2,insoluble,"EMIQQIFNLFSTKDS [compound 20, EMIQQIFNLFSTKDS]"
